Reference: publication PMC10928227, “Assessing biologic/toxicologic effects of extractables from plastic contact materials for advanced therapy manufacturing using cell painting assay and cytotoxicity screening” (Scientific Reports, 2024)
Several values for one entry are separate records, joined by “and”; a condition that tells them apart may be missing. Equal entries are not always repeated. Entries after “also recorded” stand apart in the source; their conditions may differ. Where two headings read alike, the source gives them in different places.

Tests used:
[1] = tested on: U2OS human osteosarcoma cells; test: Cell painting assay (CPA), morphological profiling and cell count; assay type: cell-based; conditions: for Percentage of changed features, AreaShape group: shape of the cells; for Lysosomotropic behavior in CPA: cluster assignment in words, N-Lauryldiethanolamine at 30 µM
Protocol: Initially, 5 µL U2OS medium were added to each well of a 384-well plate (PerkinElmer CellCarrier-384 Ultra). Subsequently, U2OS cell were seeded with a density of 1600 cells per well in 20 µL medium. The plate was incubated for 10 min at room temperature (RT), followed by an additional 4 h incubation (37 °C, 5% CO2). […] Incubation with compound was performed for 20 h (37 °C, 5% CO2). Subsequently, mitochondria were stained with Mito Tracker Deep Red (Thermo Fisher Scientific, Cat. No. M22426). The Mito Tracker Deep Red stock solution (1 mM) was diluted to a final concentration of 100 nM in prewarmed medium. The medium was removed from the plate leaving 10 µL residual volume and 25 µL of the Mito Tracker solution were added to each well. The plate was incubated for 30 min in darkness (37 °C, 5% CO2). To fix the cells, 7 µl of 18.5% formaldehyde in PBS were added, resulting in a final formaldehyde concentration of 3.7%. Subsequently, the plate was incubated for another 20 min in darkness (RT) and washed three times with 70 µL of PBS (Biotek Washer Elx405). Cells were permeabilized by addition of 25 µL 0.1% Triton X-100 to each well, followed by 15 min incubation (RT) in darkness. The cells were washed three times with PBS leaving a final volume of 10 µL. To each well 25 µL of a staining solution were added, which contains 1% BSA, 5 µL/mL Phalloidin (Alexa594 conjugate, Thermo Fisher Scientific, A12381), 25 µg/ml Concanavalin A (Alexa488 conjugate, Thermo Fisher Scientific, Cat. No. C11252), 5 µg/ml Hoechst 33342 (Sigma, Cat. No. B2261-25 mg), 1.5 µg/ml WGA-Alexa594 conjugate (Thermo Fisher Scientific, Cat. No. W11262) and 1.5 µM SYTO 14 solution (Thermo Fisher Scientific, Cat. No. S7576). The plate is incubated for 30 min (RT) in darkness and washed three times with 70 µL PBS. After the final washing step, the PBS was not aspirated. The plates were sealed and centrifuged for 1 min at 50 × g.
The images generated were processed with the CellProfiler package (https://cellprofiler.org/, version 3.0.0) on a computing cluster of the Max Planck Society to extract 1716 cell features per microscope site. The data was further aggregated as medians per well (9 sites → 1 well), then over the three replicates.
Out of the initial 1716 features, a subset of 579 highly reproducible and robust features was determined using a procedure based on the criteria described by Woehrmann et al.[54] Two biological repeats of one plate containing reference compounds were analysed. For every feature, its full profile over each whole plate was calculated. […] This procedure was performed once and served as the basis for all subsequent analyses.
The phenotypic profiles were compiled from the Z-scores of all individual cellular features, where the Z-score is a measure of how far away a data point is from a median value.
Specifically, Z-scores of test compounds were calculated relative to the Median of DMSO controls. Thus, the Z-score of a test compound defines how many MADs (Median Absolute Deviations) the measured value is away from the Median of the controls as illustrated by the following formula: Z-score=valuemeas.-MedianControls/MADControls
The phenotypic compound profile is then determined as the list of Z-scores of all features for one compound and is visualized via heatmap (examplarily see Fig. 2).

[2] = tested on: murine mesodermal stem cells (C3H10T1/2); test: Osteogenesis inhibition assay (OIA), purmorphamine-induced alkaline phosphatase expression; assay type: cell-based; conditions: for IC50: read-out: Osteogenesis inhibition assay IC50
Protocol: The osteogenesis inhibition assay was performed as described elsewhere[57]. Briefly, murine mesodermal stem cells (C3H10T1/2) were stimulated with purmorphamine (a Hedgehog agonist) to induce the expression of the osteogenesis marker alkaline phosphatase.

CHO DG44 cells = test: Cytotoxicity testing with CHO cells, cell growth spiking experiments (ASTM E3231-19); assay type: cell-based, Chinese hamster; conditions: read-out: EC50 with CHO cells
Protocol: The cell line was adapted to grow in suspension without animal-derived supplements. […] This method determines effective concentrations (EC50) that cause 50% inhibition of cell growth. Data evaluation was carried out according to the method described in ASTM E3231-19, “Standard Guide for Cell Culture Growth Assessment of Single-Use Material[23]”. This test defines best practices using serum-free, chemically-defined cell culture medium to prevent false negative results.

[3] = tested on: different industrial cell lines; set-up: method as in PMID 34411651, PMID 32535801, PMID 32748552; conditions: read-out: EC50 cell growth; cited from earlier work
CHO cells = tested on: CHO cells; set-up: method as in ref 22 (supplement); conditions: detrimental effect on cell growth; ref 22 (supplement); cited from earlier work
[4] = cited from earlier work
[5] = in Vivo, cited from earlier work
[6] = biosimilarity of CPA sub-profile to cluster
[7] = C3H10T1/2, purmorphamine, 96 h, alkaline phosphatase expression
[8] = CHO DG44, serum-free chemically defined medium, 72 h, 50% inhibition of cell growth
[9] = 30 µM, U2OS, 20 h, percentage of altered features (579) vs DMSO controls
[10] = Database Genotoxicity & Carcinogenicity ECVAM, ref EURL ECVAM genotoxicity and carcinogencity database, Madia F et al, 2020
[11] = in Vitro, Database Genotoxicity & Carcinogenicity ECVAM, ref EURL ECVAM genotoxicity and carcinogencity database, Madia F et al, 2020

**Q.** For `CC(C)(C)c1ccc(OP(=O)(O)Oc2ccc(C(C)(C)C)cc2C(C)(C)C)c(C(C)(C)C)c1` [bDtBPP, bis(2,4-di-tert-butylphenyl)phosphate], which Cell count ([1]; 50 µM, U2OS, 20 h) is on record?
**A.** 87 (50 µM) % of control

**Q.** And the “Induction in CPA” value ([1]; 50 µM, U2OS, 20 h, percentage of altered features (579) vs DMSO controls)?
**A.** 17 (50 µM) %

**Q.** What about the “Percentage of changed features, AreaShape group” value ([1]; Fig. 6) of the same molecule?
**A.** approx. 20%

**Q.** And the “Highest similarity to biological clusters: DNA synthesis” value [1, 6]?
**A.** DNA synthesis (65%)

**Q.** And the “Impact on cell growth of U2OS cells” value ([1]; concentrations ≤ 50 µM, in words)?
**A.** no impact on cell growth

**Q.** What about the IC50 [2, 7] of the same molecule?
**A.** 6.8 µM

**Q.** And the EC50 (CHO DG44 cells; [8])?
**A.** 600 nM

**Q.** And the EC50 [3]?
**A.** < 1000 nM

**Q.** What about the EC50 (CHO cells) of the same molecule?
**A.** < 1000 nM

**Q.** Which “Induction in CPA” value [1, 9] does the source give for `CCCCCCCCCc1ccc(O)cc1` [4-n-Nonylphenol] here?
**A.** 17 (30 µM) %

**Q.** What about the Cell count ([1]; 50 µM, U2OS, 20 h) of the same molecule?
**A.** 91 (50 µM) % of control

**Q.** What about the “Highest similarity to biological clusters: DNA synthesis” value [1, 6] of the same molecule?
**A.** DNA synthesis (70%)

**Q.** What about the IC50 ([2]; Mus musculus, C3H 10T1/2, 96 h) of the same molecule?
**A.** 3.8 µM

**Q.** And the EC50 (CHO DG44 cells; Cricetulus griseus, CHO-DG44, 72 h)?
**A.** > 4500 nM

**Q.** With `CCCCCCCCCCCCN(CCO)CCO` [N-Lauryldiethanolamine] as the molecule, how does the “Induction in CPA” value ([1]; 3 µM, U2OS, 20 h, percentage of altered features (579) vs DMSO controls) read?
**A.** 61% and 61 (3 µM) %

**Q.** And the “U2OS cell count compared to the control” value ([1]; 30 µM, after 24 h incubation)?
**A.** 50%

**Q.** What about the Cell count ([1]; 50 µM, U2OS, 20 h) of the same molecule?
**A.** 11 (50 µM) % of control

**Q.** And the “Percentage of changed features, all channels” value ([1]; Fig. 6, 3 µm)?
**A.** 50 to 90%

**Q.** What about the “Percentage of changed features, AreaShape group” value ([1]; Fig. 6) of the same molecule?
**A.** all features

**Q.** What about the “Concentration from which strong inhibitory effect on cell growth starts” value ([1]; U2OS, CPA) of the same molecule?
**A.** ≥ 30 µM

**Q.** And the “Highest similarity to biological clusters: Cholesterol homeostasis” value [1, 6]?
**A.** 88%

**Q.** And the “Lysosomotropic behavior in CPA” value [1]?
**A.** some lysosomotropic behavior

**Q.** What about the “Induction in CPA” value ([1]; tested concentrations ≤ 50 µM, concentration not given at the place, active threshold 5%) of the same molecule?
**A.** > 5%

**Q.** What about the “Toxic concentration in the osteogenesis inhibition assay” value ([2]; C3H10T1/2, excluded from dose-response measurement) of the same molecule?
**A.** ≥ 10 µM

**Q.** What about the IC50 [2, 7] of the same molecule?
**A.** ≥ 10 µM

**Q.** What about the EC50 (CHO DG44 cells; [8]) of the same molecule?
**A.** 2100 nM

**Q.** With `Cc1cc(C)c(C(=O)P(=O)(c2ccccc2)c2ccccc2)c(C)c1` [TPO, diphenyl(2,4,6-trimethylbenzoyl)phosphine oxide] as the molecule, how does the “Induction in CPA” value [1, 9] read?
**A.** 11 (30 µM) %

**Q.** What about the Cell count ([1]; 50 µM, U2OS, 20 h) of the same molecule?
**A.** 94 (50 µM) % of control

**Q.** And the “Percentage of changed features, nuclei (Hoechst) channel” value ([1]; Fig. 6)?
**A.** approx. 5%

**Q.** What about the “Percentage of changed features, AreaShape group” value ([1]; Fig. 6) of the same molecule?
**A.** ~30%

**Q.** What about the “Highest similarity to biological clusters: HDAC” value [1, 6] of the same molecule?
**A.** 77%

**Q.** What about the “Lysosomotropic behavior in CPA” value [1] of the same molecule?
**A.** lysosomotropic behavior; also recorded: Weak lysosomotropic

**Q.** What about the IC50 ([2]; Mus musculus, C3H 10T1/2, C3H10T1/2, purmorphamine, 96 h, alkaline phosphatase expression) of the same molecule?
**A.** 5 µM

**Q.** What about the EC50 (CHO DG44 cells; Cricetulus griseus, CHO DG44, serum-free chemically defined medium, 72 h, 50% inhibition of cell growth) of the same molecule?
**A.** 4400 nM

**Q.** What about the “Risk based on in vitro genotoxicity data from database (from QSAR-toolbox)” value ([4]; not checked for in vivo relevance, ref QSAR Toolbox 4.5 database) of the same molecule?
**A.** No alert

**Q.** What does the source list for `OCc1ccccc1` [100-51-6]?
**A.** Chromosome aberration, Micronucleus Assay [5, 10]: Negative; DNA damage and repair, COMET or Alkaline Elution [5, 10]: Positive; Chromosome aberration, Micronucleus Assay ([5]; Database Genotoxicity OASIS, ref Hayashi M., et al., Food Chem. Toxicol., 26(6), 487-500, 1988): Negative; DNA damage and repair, Single Cell Gel Electrophoresis (comet) Assay ([5]; Database Genotoxicity OASIS, ref Yu F. Sasaki et. al., 2000, Critical Reviews in Toxicology,30(6),Pp.629-799): Negative; Gene mutation, Bacterial Reverse Mutation Assay (e.g. Ames Test) ([4]; Salmonella typhimurium, No Strain Information, in Vitro, Database: Genotoxicity OASIS, ref Mutation Research 584 (2005) 1-256, Kirkland et al.): Negative; Gene mutation, Bacterial Reverse Mutation Assay (e.g. Ames Test) ([4]; Salmonella typhimurium, Strain TA 97, in Vitro, Database: Bacterial mutagenicity ISSSTY, ref CCRIS database,Toxnet databases (Romualdo Benigni)): Negative; Gene mutation, Bacterial Reverse Mutation Assay (e.g. Ames Test) ([4]; Salmonella typhimurium, Strain TA 98, in Vitro, Database: Bacterial mutagenicity ISSSTY, ref CCRIS database,Toxnet databases (Romualdo Benigni)): Negative; Gene mutation, Bacterial Reverse Mutation Assay (e.g. Ames Test) ([4]; Salmonella typhimurium, Strain TA 98, in Vitro, Database: Genotoxicity OASIS, ref P&G): Negative; Gene mutation, Bacterial Reverse Mutation Assay (e.g. Ames Test) ([4]; Salmonella typhimurium, Strain TA 100, in Vitro, Database: Bacterial mutagenicity ISSSTY, ref CCRIS database,Toxnet databases (Romualdo Benigni)): Negative; Gene mutation, Bacterial Reverse Mutation Assay (e.g. Ames Test) ([4]; Salmonella typhimurium, Strain TA 100, in Vitro, Database: Genotoxicity OASIS, ref P&G): Negative; Gene mutation, Bacterial Reverse Mutation Assay (e.g. Ames Test) ([4]; Salmonella typhimurium, Strain TA 102, in Vitro, Database: Bacterial mutagenicity ISSSTY, ref CCRIS database,Toxnet databases (Romualdo Benigni)): Negative; Gene mutation, Bacterial Reverse Mutation Assay (e.g. Ames Test) ([4]; Salmonella typhimurium, Strain TA 1535, in Vitro, Database: Bacterial mutagenicity ISSSTY, ref CCRIS database,Toxnet databases (Romualdo Benigni)): Negative; Gene mutation, Bacterial Reverse Mutation Assay (e.g. Ames Test) ([4]; Salmonella typhimurium, Strain TA 1535, in Vitro, Database: Genotoxicity OASIS, ref P&G): Negative; Gene mutation, Bacterial Reverse Mutation Assay (e.g. Ames Test) ([4]; Salmonella typhimurium, Strain TA 1537, in Vitro, Database: Bacterial mutagenicity ISSSTY, ref CCRIS database,Toxnet databases (Romualdo Benigni)): Negative; Gene mutation, Bacterial Reverse Mutation Assay (e.g. Ames Test) ([4]; Salmonella typhimurium, Strain TA 1537, in Vitro, Database: Genotoxicity OASIS, ref P&G): Negative; Chromosome aberration, in Vitro Mammalian Chromosome Aberration Test ([4]; in Vitro, Chinese hamster, CHO Cells, Database Genotoxicity OASIS, ref ECHA, Registration dossier): Positive; Chromosome aberration, in Vitro Mammalian Chromosome Aberration Test ([4]; in Vitro, Chinese hamster, Chinese Hamster Lung (CHL), Duration 24÷48 h, Database Genotoxicity OASIS, ref Sofuni, T., Ed. (1998). Data Book of Chromosomal Aberration Test In Vitro, Revised Edition): Negative; Chromosome aberration, Micronucleus Assay [4, 11]: Negative; Chromosome aberration, in Vitro Mammalian Chromosome Aberration Test [4, 11]: Negative; Gene mutation, Bacterial Reverse Mutation Assay (e.g. Ames Test) [4, 11]: Negative; Gene mutation, Mammalian Cell Gene Mutation (MLA HPRT) [4, 11]: Inadequate; Chromosome aberration, in Vitro Mammalian Chromosome Aberration Test ([4]; in Vitro, No Strain Information, Database Genotoxicity OASIS, ref Mutation Research 584 (2005) 1-256, Kirkland et al.): Positive; Gene mutation, Bacterial Reverse Mutation Assay (e.g. Ames Test) ([4]; in Vitro, Salmonella typhimurium, No Strain Information, Database Genotoxicity OASIS, ref Journal of Medicinal Chemistry 48 (1), pp. 312-32, 25, Kazius J, McGuire R., Bursi R): Negative; Gene mutation, Bacterial Reverse Mutation Assay (e.g. Ames Test) ([4]; in Vitro, Salmonella typhimurium, Strain TA 97, Database Genotoxicity OASIS, ref P&G): Negative; Gene mutation, Bacterial Reverse Mutation Assay (e.g. Ames Test) ([4]; in Vitro, Salmonella typhimurium, Strain TA 98, Database Genotoxicity OASIS, ref P&G): Negative; Gene mutation, Bacterial Reverse Mutation Assay (e.g. Ames Test) ([4]; in Vitro, Salmonella typhimurium, Strain TA 100, Database Genotoxicity OASIS, ref P&G): Negative; Gene mutation, Bacterial Reverse Mutation Assay (e.g. Ames Test) ([4]; in Vitro, Salmonella typhimurium, Strain TA 102, OECD Guideline 471, Database Genotoxicity OASIS, ref CCRIS database,Toxnet databases): Negative; Gene mutation, Bacterial Reverse Mutation Assay (e.g. Ames Test) ([4]; in Vitro, Salmonella typhimurium, Strain TA 1535, Database Genotoxicity OASIS, ref P&G): Negative; Gene mutation, Bacterial Reverse Mutation Assay (e.g. Ames Test) ([4]; in Vitro, Salmonella typhimurium, Strain TA 1537, Database Genotoxicity OASIS, ref P&G): Negative; Gene mutation, Bacterial Reverse Mutation Assay (e.g. Ames Test) ([4]; in Vitro, Salmonella typhimurium, Strain TA 1538, Database Genotoxicity OASIS, ref P&G): Negative; Gene mutation, Mammalian Cell Gene Mutation Assay ([4]; in Vitro, T-lymphoma Cell Lines, Database Genotoxicity OASIS, ref Mutation Research 584 (2005) 1-256, Kirkland et al.): Positive
